# Source: PMC12569736 (Journal of Cosmetic Dermatology, 2025)
# Tests used:
# human tyrosinase (hTYR) = biological target: T1, human tyrosinase (hTYR) (Homo sapiens, UniProt P14679); assay: L‐DOPA oxidation assay for tyrosinase activity (MNT‐1 cell lysate); type: biochemical
# T1 construct: tyrosinase enzyme solution derived from MNT‐1 cells; endogenous in cells; host or cells: MNT-1 human melanoma cell line (crude lysate supernatant)
# T1 sequence (P14679 19-529): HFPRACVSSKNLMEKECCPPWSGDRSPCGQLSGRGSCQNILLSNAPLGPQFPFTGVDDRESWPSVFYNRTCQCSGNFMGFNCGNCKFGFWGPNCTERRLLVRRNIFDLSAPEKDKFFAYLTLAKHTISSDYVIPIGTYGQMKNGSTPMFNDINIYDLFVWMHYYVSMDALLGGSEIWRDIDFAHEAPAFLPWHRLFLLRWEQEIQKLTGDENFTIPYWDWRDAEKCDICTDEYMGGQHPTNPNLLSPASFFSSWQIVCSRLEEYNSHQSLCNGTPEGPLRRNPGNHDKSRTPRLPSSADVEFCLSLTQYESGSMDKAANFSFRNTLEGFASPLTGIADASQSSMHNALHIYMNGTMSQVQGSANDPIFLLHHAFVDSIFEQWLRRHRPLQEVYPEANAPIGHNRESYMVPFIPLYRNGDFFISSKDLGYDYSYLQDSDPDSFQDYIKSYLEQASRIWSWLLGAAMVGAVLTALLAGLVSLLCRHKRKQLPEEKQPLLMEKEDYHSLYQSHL
# Experimental: The hTYR‐mediated L‐DOPA oxidation assay was performed according to Winder and Harris. MNT‐1 cells were resuspended in 0.05 M sodium phosphate buffer (pH 6.9) and sonicated for 1 min. After incubation on ice for 3–5 min, the mixture underwent a second sonication. The lysate was centrifuged at 13 000 rpm for 15 min at 4°C, and the supernatant was collected and kept on ice.
# For the assay, 20 μL of crude enzyme solution and 80 μL sodium phosphate buffer were added to a 96‐well plate and centrifuged at 1000 rpm for 30 s. Subsequently, 2 μL of different concentrations of test compounds were added to each well, followed by centrifugation at 1000 rpm for 30 s. Finally, 100 μL L‐DOPA (final concentration 4 mM) was added to initiate the reaction. The microplate reader (Synergy H1 Hybrid Reader, BioTek) was used to monitor the reaction at 26°C, measuring absorbance at 475 nm every minute for 60 min. IC50 values were calculated using GraphPad software based on Vmax values from the kinetic curves.
# The L‐DOPA tyrosinase assay was performed using a tyrosinase enzyme solution derived from MNT‐1 cells in 50 mM sodium phosphate buffer (pH 6.9), with a substrate (L‐DOPA) concentration of 4 mM and various concentrations of inhibitors as indicated. Data represent mean ± standard deviation of three independent experiments.
# [1] = test system: LPS‐stimulated RAW264.7 cells; assay: RT‐qPCR of inflammatory cytokines in LPS‐stimulated RAW264.7 cells; type: cell-based, mouse; settings: 3, 10 or 30 μM pretreatment 2 h, then 100 ng/mL LPS 16 h, vs LPS group
# Experimental: RAW264.7 cells were treated with KT‐939 at concentrations of 3, 10, or 30 μM and incubated for 2 h. After pretreatment, cells were stimulated with 100 ng/mL LPS for an additional 16 h. Total RNA was extracted using the MiniBEST RNA Extraction Kit (Takara Bio) per the manufacturer's protocol. Reverse transcription and SYBR Green‐based qPCR were performed with ABScript II One Step RT‐qPCR Kit (Abclonal). RT‐PCR primer sequences were as follows: (Mouse) TNF‐α sense: 5‐[…]‐3, antisense: 5‐[…]‐3; (Mouse) IL‐6 sense: 5‐[…]‐3, antisense: 5‐[…]‐3; (Mouse) IL‐1α sense: 5‐[…]‐3, antisense: 5‐[…]‐3; (Mouse) GAPDH sense: 5‐[…]‐3, antisense: 5‐[…]‐3; Expression of target gene mRNA was normalized to GAPDH, and results were analyzed using GraphPad software.
# RAW264.7 cells were pre‐treated with different concentrations of KT‐939, followed by the addition of 100 ng/mL LPS for 16 h. mRNA levels of TNF‐α, IL‐6, and IL‐1α were quantified by RT‐PCR and compared to the LPS‐induced group (*p < 0.05, **p < 0.01, ***p < 0.001).
compound,measurement,setting,value
"CC1(C(=O)Nc2nc(-c3ccc(O)cc3O)cs2)COC1 [KT‐939, N‐(4‐(2,4‐Dihydroxyphenyl) Thiazol‐2‐yl)‐3‐Methyloxetane‐3‐Carboxamide]",IC50,"human tyrosinase (hTYR); MNT‐1 lysate, L‐DOPA 4 mM, pH 6.9, read-out: IC50 against hTYR",70 nM
same,inhibition of hTYR,human tyrosinase (hTYR); at concentrations ≥ 0.4 μM,nearly complete inhibition
same,fold greater hTYR potency than 4‐butylresorcinol,"human tyrosinase (hTYR); ratio of IC50, vs 4‐butylresorcinol",~100 fold
same,fold greater hTYR potency than 377,"human tyrosinase (hTYR); ratio of IC50, vs 377",over 300 fold
same,fold greater hTYR potency than Thiamidol,"human tyrosinase (hTYR); ratio of IC50, vs Thiamidol",~ 4 fold
same,fold greater hTYR potency than resveratrol,"human tyrosinase (hTYR); ratio of IC50, vs resveratrol",~86 fold
same,IL‐1α mRNA level,[1],dose‐dependent decrease
same,IL‐6 mRNA level,[1],dose‐dependent decrease
same,TNF‐α mRNA level,[1],dose‐dependent decrease
